Measured values reported in article PMC6934184, “Selective DNA-PKcs inhibition extends the therapeutic index of localized radiotherapy and chemotherapy” (The Journal of Clinical Investigation, 2019).

Molecular target: T1, TXK (Homo sapiens, UniProt P42681)
T1 construct: purchased Thermo Fisher Scientific (Life Technologies) SelectScreen
Experiment: SelectScreen Z'LYTE
Format: biochemical
Outline: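 Compound tested in SelectScreen activity assays, Z'LYTE for CSF1R, CDK1/cyclin B and MAP2K6 and Adapta for CAMK1. ATP for CAMK1 was listed as 10, and Km app was used for CSF1R. Results are expressed in percent.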

T1 sequence (P42681 whole entry): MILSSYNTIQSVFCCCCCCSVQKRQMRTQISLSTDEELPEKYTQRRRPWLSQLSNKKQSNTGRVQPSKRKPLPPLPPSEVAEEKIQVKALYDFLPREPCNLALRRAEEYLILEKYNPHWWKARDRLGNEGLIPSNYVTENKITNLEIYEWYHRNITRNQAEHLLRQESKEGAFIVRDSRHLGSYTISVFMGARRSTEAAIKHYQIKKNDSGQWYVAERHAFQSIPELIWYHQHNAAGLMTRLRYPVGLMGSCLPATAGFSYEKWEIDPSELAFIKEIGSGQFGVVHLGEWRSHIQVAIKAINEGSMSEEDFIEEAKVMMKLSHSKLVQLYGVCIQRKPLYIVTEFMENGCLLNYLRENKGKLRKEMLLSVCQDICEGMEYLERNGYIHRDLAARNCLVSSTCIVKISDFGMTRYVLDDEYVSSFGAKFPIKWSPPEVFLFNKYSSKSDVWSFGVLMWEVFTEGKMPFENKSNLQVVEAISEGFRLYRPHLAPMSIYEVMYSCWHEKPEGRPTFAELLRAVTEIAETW

Question: Which inhibition at 1 µM does the source give for `CN(C(=O)CN1CCOCC1)c1ccc2sc3c(-c4cccc5c(=O)cc(N6CC7CCC(C6)O7)oc45)cccc3c2c1` [NU5455] here?
Answer: -2.9%
